Like-named read-outs stand apart in the source and are kept apart here.
Target: T1, TGFβ R1 (Homo sapiens, UniProt P36897)
T1 sequence (P36897 34-503): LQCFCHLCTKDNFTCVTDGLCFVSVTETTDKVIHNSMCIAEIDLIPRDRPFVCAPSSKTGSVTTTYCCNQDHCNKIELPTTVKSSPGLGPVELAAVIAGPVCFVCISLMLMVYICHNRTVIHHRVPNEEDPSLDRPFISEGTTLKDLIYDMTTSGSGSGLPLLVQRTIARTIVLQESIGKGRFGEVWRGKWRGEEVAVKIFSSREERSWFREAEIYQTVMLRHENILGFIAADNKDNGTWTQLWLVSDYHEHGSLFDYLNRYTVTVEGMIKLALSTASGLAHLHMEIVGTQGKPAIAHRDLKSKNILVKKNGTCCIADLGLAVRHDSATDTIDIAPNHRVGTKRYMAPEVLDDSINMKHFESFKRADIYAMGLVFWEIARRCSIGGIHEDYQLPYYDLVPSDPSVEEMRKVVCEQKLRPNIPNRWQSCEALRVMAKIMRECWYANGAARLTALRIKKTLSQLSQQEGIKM
Test: TGFβ R1 autophosphorylation protocol (33P-ATP, phosphocellulose filter plate)
Format: biochemical
Conditions: 10 uM ATP, read-out: IC50 for Kinase Inhibition
Experimental: The compounds of the invention were tested for their ability to inhibit TGFβ by a TGFβ R^1 autophosphorylation protocol. This was conducted as follows: Compound dilutions and reagents were prepared fresh daily. Compounds were diluted from DMSO stock solutions to 2 times the desired assay concentration, keeping final DMSO concentration in the assay less than or equal to 1%. TGFβ R1 was diluted to 4 times the desired assay concentration in buffer+DTT. ATP was diluted into 4× reaction buffer, and gamma-^33P-ATP was added at 60 uCi/mL.
The assay was performed by adding 10 ul of the enzyme to 20 ul of the compound solution. The reaction was initiated by the addition of 10 ul of ATP mix. Final assay conditions included 10 uM ATP, 170 nM TGFβ R1, and […] in 20 mM MOPS, pH7. The reactions were incubated at room temperature for 20 minutes. The reactions were stopped by transferring 23 ul of reaction mixture onto a phosphocellulose 96-well filter plate, which had been pre-wetted with 15 ul of 0.25M H3PO4 per well. After 5 minutes, the wells were washed 4× with 75 mM H3PO4 and once with 95% ethanol. The plate was dried, scintillation cocktail was added to each well, and the wells were counted in a Packard TopCount microplate scintillation counter.

[1] = 170 nM TGFβ R1, 20 minutes at room temperature
[2] = 170 nM TGFβ R1, room temperature 20 minutes

Row | SMILES | IC50 [1] | IC50 [2]
1 | COc1cnc(-c2cc(Cl)ccc2F)nc1Nc1ccncc1C(=O)NCCCNCCOC1O[C@H](COC(C)=O)[C@@H](OC(C)=O)[C@H](OC(C)=O)[C@H]1OC(C)=O (stereo in doubt) [Compound 132, Acetic acid 3,4,5-triacetoxy-6-{2-[3-({4-[2-(5-chloro-2-fluoro-phenyl)-5-methoxy-pyrimidin-4-ylamino]-pyridine-3-carbonyl)-amino)-propylamino]-ethoxy}-tetrahydro-pyran-2-ylmethyl ester] | 32 nM | –
2 | COc1cnc(-c2cc(Cl)ccc2F)nc1Nc1ccncc1C(=O)NCCCNC(=O)COC1O[C@H](CO)[C@@H](O)[C@H](O)[C@H]1O (stereo in doubt) [Compound 135, 4-[2-(5-Chloro-2-fluoro-phenyl)-5-methoxy-pyrimidin-4-ylamino]-N-{3[2-(3,4,5-trihydroxy-6-hydroxymethyl-tetrahydro-pyran-2-yloxy)-acetylamino]-propyl)-nicotinamide] | 60 nM | –
3 | CC(C)c1cnc(-c2cc(Cl)ccc2F)nc1Nc1ccncc1C(=O)NC1CCC[C@@H]1OCc1ccccc1 (stereo in doubt) [Compound 223, N-(2-Benzyloxy-cyclopentyl)-4-[2-(5-chloro-2-fluoro-phenyl)-5-isopropyl-pyrimidin-4-ylamino]-nicotinamide] | – | 7140 nM
4 | CC(C)c1cnc(-c2cc(Cl)ccc2F)nc1Nc1ccncc1C(=O)N[C@H]1CCC[C@@H]1O (stereo in doubt) [Compound 235, 4-[2-(5-Chloro-2-fluoro-phenyl)-5-isopropyl-pyrimidin-4-ylamino]-N-(2-hydroxy-cyclopentyl)-nicotinamide] | – | 40 nM
5 | CCOC(=O)CNC(=O)c1cnccc1Nc1nc(-c2cc(Cl)ccc2F)ncc1OC [Compound 1, ({4-[2-(5-Chloro-2-fluoro-phenyl)-5-methoxy-pyrimidin-4-ylamino]pyridine-3-carbonyl}-amino)-acetic acid ethyl ester] | 40 nM | –
6 | COc1cnc(-c2cc(Cl)ccc2F)nc1Nc1ccncc1C(=O)NCC(=O)O [Compound 2, ({4-[2-(5-Chloro-2-fluoro-phenyl)-5-methoxy-pyrimidin-4-ylamino]-pyridine 3-carbonyl}-amino)-acetic acid] | 920 nM | –
7 | COc1cnc(-c2cc(Cl)ccc2F)nc1Nc1ccncc1C(=O)NCCNCC(C)O (stereo not shown) [Compound 5] | 20 nM | –
8 | COc1cnc(-c2cc(Cl)ccc2F)nc1Nc1ccncc1C(=O)NCCCN1CCOCC1 [Compound 9, 4-[2-(5-Chloro-2-fluoro-phenyl)-5-methoxy-pyrimidin-4-ylamino]-N-(3-morpholin-4-yl-propyl)-nicotinamide] | 30 nM | –
9 | COc1cnc(-c2cc(Cl)ccc2F)nc1Nc1ccncc1C(=O)NCCCN1CCCC1=O [Compound 11, 4-{2-(5-Chloro-2-fluoro-phenyl)-5-methoxy-pyrimidin-4-ylamino]-N-[3-(2-oxo-pyrrolidin-1-yl)-propyl]-nicotinamide] | 120 nM | –
10 | COc1cnc(-c2cc(Cl)ccc2F)nc1Nc1ccncc1C(=O)NCCCN1CCCCC1C (stereo not shown) [Compound 12, 4-[2-(5-Chloro-2-fluoro-phenyl)-5-methoxy-pyrimidin-4-ylamino]-N-[3-(2-methyl-piperidin-1-yl)-propyl]-nicotinamide] | 60 nM | –
11 | COc1cnc(-c2cc(Cl)ccc2F)nc1Nc1ccncc1C(=O)NCCCNCCNC(C)C [Compound 14] | 120 nM | –
12 | O=C(NC1CC1)c1cnccc1Nc1nc(-c2cc(Cl)ccc2F)ncc1N1CCCC1 [Compound 21, 4-[2-(5-Chloro-2-fluoro-phenyl)-5-pyrrolidin-1-yl-pyrimidin-4-ylamino]-N-cyclopropyl-nicotinamide] | 180 nM | –
13 | CNCCNC(=O)c1cnccc1Nc1nc(-c2cc(Cl)ccc2F)ncc1N1CCCC1 [Compound 22, 4-[2-(5-Chloro-2-fluoro-phenyl)-5-pyrrolidin-1-yl-pyrimidin-4-ylamino]-N-(2-methylamino-ethyl)-nicotinamide] | 100 nM | –
14 | COc1cnc(-c2cc(Cl)ccc2F)nc1Nc1ccncc1C(=O)NCCCNC(=O)OC(C)(C)C [Compound 33, [3-({4-[2-(5-Chloro-2-fluoro-phenyl)-5-methoxy-pyrmidin-4-ylamino]-pyridine-3-carbonyl}-amino)-propyl]-carbamic acid tert-butyl ester] | 1130 nM | –

Now from value to molecule:

Row | IC50 [1] | IC50 [2] | SMILES
15 | 370 nM | – | COc1cnc(-c2cc(Cl)ccc2F)nc1Nc1ccncc1C(=O)NCC1CCCC[C@H]1O (stereo in doubt) [Compound 31, 4-[2-(5-Chloro-2-fluoro-phenyl)-5-methoxy-pyrimidin-4-ylamino]-N-(2-hydroxy-cyclohexylmethyl)-nicotinamide]
16 | – | 5 nM | CC(C)c1cnc(-c2cc(Cl)ccc2F)nc1Nc1ccncc1C(=O)NC1C[C@@H]1CO (stereo in doubt) [Compound 215, 4-[2-(5-Chloro-2-fluoro-phenyl)-5-isopropyl-pyrimidin-4-ylamino]-N-(2-hydroxymethyl-cyclopropyl)-nicotinamide]
17 | – | 10 nM | CC(C)c1cnc(-c2cc(Cl)ccc2F)nc1Nc1ccncc1C(=O)NC1C[C@H]1CO (stereo in doubt) [Compound 216, 4-[2-(5-Chloro-2-fluoro-phenyl)-5-isopropyl-pyrimidin-4-ylamino]-N-(2-hydroxymethyl-cyclopropyl)-nicotinamide]
18 | – | 7700 nM | CC(C)c1cnc(-c2cc(Cl)ccc2F)nc1Nc1ccncc1C(=O)N[C@@H]1CCC[C@H]1OCc1ccccc1 (stereo in doubt) [Compound 222, N-(2-Benzyloxy-cyclopentyl)-4-[2-(5-chloro-2-fluoro-phenyl)-5-isopropyl-pyrimidin-4-ylamino]-nicotinamide]
19 | 10 nM | – | COc1cnc(-c2cc(Cl)ccc2F)nc1Nc1ccncc1C(=O)NCCNCCO [Compound 6, 4-[2-(5-Chloro-2-fluoro-phenyl)-5-methoxy-pyrimidin-4-ylamino]-N-[2-(2-hydroxy-ethylamino)-ethyl]-nicotinamide]
20 | 30 nM | – | COc1cnc(-c2cc(Cl)ccc2F)nc1Nc1ccncc1C(=O)NCCCN(C)C [Compound 7, 4-[2-(5-Chloro-2-fluoro-phenyl)-5-methoxy-pyrimidin-4-ylamino]-N-(3-dimethylamino-propyl)-nicotinamide]
21 | 60 nM | – | COc1cnc(-c2cc(Cl)ccc2F)nc1Nc1ccncc1C(=O)NC1CCN(C(=O)OC(C)(C)C)CC1 [Compound 8, 4-({4-[2-(5-Chloro-2-fluoro-phenyl)-5-methoxy-pyrimidin-4-ylamino]-pyridine-3-carbonyl}-amino)-piperidine-1-carboxylic acid tert-butyl ester]
22 | 60 nM | – | COc1cnc(-c2cc(Cl)ccc2F)nc1Nc1ccncc1C(=O)NCCCn1ccnc1 [Compound 10, 4-[2-(5-Chloro-2-fluoro-phenyl)-5-methoxy-pyrimidin-4-ylamino]-N-(3-inidazol-1-yl-propyl)-nicotinamide]
23 | 200 nM | – | CC(C)NCCNC(=O)c1cnccc1Nc1nc(-c2cc(Cl)ccc2F)ncc1N1CCCC1 [Compound 23, 4-[2-(5-Chloro-2-fluoro-phenyl)-5-pyrrolidin-1-yl-pyrimidin-4-ylamino]-N-(2-isopropylamino-ethyl)-nicotinamide]
24 | 490 nM | – | O=C(NCCO)c1cnccc1Nc1nc(-c2cc(Cl)ccc2F)ncc1N1CCCC1 [Compound 24, 4-[2-(5-Chloro-2-fluoro-phenyl)-5-pyrrolidin-1-yl-pyrimidin-4-ylamino]-N-(2-hydroxy-ethyl)-nicotinamide]
25 | 200 nM | – | O=C(NCCN1CCCC1)c1cnccc1Nc1nc(-c2cc(Cl)ccc2F)ncc1N1CCCC1 [Compound 26, 4-[2-(5-Chloro-2-fluoro-phenyl)-5-pyrrolidin-1-yl-pyrimidin-4-ylamino]-N-(2-pyrrolidin-1-yl-ethyl)-nicotinamide]
26 | 30 nM | – | COc1cnc(-c2cc(Cl)ccc2F)nc1Nc1ccncc1C(=O)NCCCN1CCCC1 [Compound 29]
27 | 2370 nM | – | COc1cnc(-c2cc(Cl)ccc2F)nc1Nc1ccncc1C(=O)NCC1CN(Cc2ccccc2)CCO1 (stereo not shown) [Compound 30, N-(4-Benzyl-morpholin-2-ylmethyl)-4-[2-(5-chloro-2-fluoro-phenyl)-5-methoxy-pyrimidin-4-ylamino)-nicotinamide]
28 | 560 nM | – | COc1cnc(-c2cc(Cl)ccc2F)nc1Nc1ccncc1C(=O)NCCNC(=O)OC(C)(C)C [Compound 32, [2-({4-[2-(5-Chloro-2-fluoro-phenyl)-5-methoxy-pyrimidin-4-ylamino]-pyridine-3-carbonyl}-amino)-ethyl]-carbamic acid tert-butyl ester]

From US20060281763A1, “Carboxamide inhibitors of TGFbeta” (priority 2005, published 2006)
